Measurements reported in US5087561A, “Humoral hypercalcemic factor antagonists modified at position 13 by biotin” (Merck & Co., Inc., priority 1990, dated 1992).
pKi: −log10 of the molar value.

What was measured:
[1] = biological target: T1, PTH receptors (human bone cells) (Homo sapiens, UniProt Q03431); test: Human bone cell binding assay; settings: confluent monolayers, radioligand [Nle^8,18,(^125 I)-Tyr^34 ]bPTH(1-34)NH2, room temperature, 4 hours
T1 construct: endogenous in cells
T1 sequence (Q03431 27-593): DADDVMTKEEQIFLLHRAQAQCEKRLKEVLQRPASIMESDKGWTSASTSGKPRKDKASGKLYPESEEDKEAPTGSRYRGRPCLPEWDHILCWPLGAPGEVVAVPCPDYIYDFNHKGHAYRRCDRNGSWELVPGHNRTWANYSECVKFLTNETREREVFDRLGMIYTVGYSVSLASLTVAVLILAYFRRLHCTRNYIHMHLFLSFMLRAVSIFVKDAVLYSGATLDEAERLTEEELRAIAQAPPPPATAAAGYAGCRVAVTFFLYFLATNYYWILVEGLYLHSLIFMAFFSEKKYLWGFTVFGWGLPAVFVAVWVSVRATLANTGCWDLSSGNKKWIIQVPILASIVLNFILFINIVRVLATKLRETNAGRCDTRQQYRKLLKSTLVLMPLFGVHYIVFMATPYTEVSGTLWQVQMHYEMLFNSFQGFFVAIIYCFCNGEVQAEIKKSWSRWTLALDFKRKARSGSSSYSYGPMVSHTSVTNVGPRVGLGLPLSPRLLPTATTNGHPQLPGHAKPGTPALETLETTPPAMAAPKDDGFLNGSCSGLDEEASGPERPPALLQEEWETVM
Description: HCF analogues were analyzed in a new receptor binding assay as follows. Cells were plated in 24-well dishes in RPMl 1640 medium supplemented with 1% BSA, 20 mM HEPES, pH 7.5, and 0.1% azide. [Nle^8,18,(^125 I)-Tyr^34 ]bPTH(1-34)NH2 (50,000 cpm/well) was added to confluent monolayers in the absence or presence of varying concentrations of analogue under investigation in a final volume of 0.25 ml. Cultures were incubated at room temperature for 4 hours. Reactions were terminated by placing the cultures on ice and washing 4 times with ice cold PBS. Radioactivity associated with the cells was recovered by solubilizing the cells with 1 ml of 1N NaOH.

[2] = test system: adenylate cyclase, human osteosarcoma cell line, B10; test: Human bone cell (B 10) adenylate cyclase assay; assay type: cell-based; settings: inhibition of cAMP stimulation by lnM [Nle^8,18, Tyr^34 ] bPTH(1-34) NH2; B10 cells
Description: HCF analogues were analyzed in a human osteosarcoma cell line, B10, for the ability to inhibit cAMP stimulation by lnM [Nle^8,18, Tyr^34 ] bPTH(1-34) NH2 by the method described by R. J. Majeska et al, Endocrinol. 107, 1494 (1980).
Adenylate cyclase assay: Confluent cultures were rinsed in CMFH and scraped into 0.5-1.0 ml buffer (10 mM Tris-HCl, pH 7.8; 1 mM dithiothreitol, 0.2 mM MgCl2; and 0.5 mM EGTA) and homogenized with 10 strokes of a Dounce homogenizer (pestle A). Adenylate cyclase activity was measured by the method of Salomon et al., (18) on samples of either homogenate or membrane pellets obtained by centrifugation of diluted homogenates at 47,000×g for 30 min. The enzyme assay mix contained 0.1-0.3 mM [α-^32 P]ATP, MgCl2, and guanine nucelotides, as specified in the tables and FIGURES, and 1 mM cAMP, 5 mM phosphocreatine, and 100 U/ml creatine phosphokinase. Purified bovine PTH-(1-84), generously provided by Drs. H. Keutmann and M. Rosenblatt, Massachusetts General Hospital, Boston, MA, was dissolved and diluted in 1.5 ml/liter acetic acid containing 1 g/liter bovine serum albumin (Pentex fraction V, Miles Laboratories, Elkhart, IN). L-Isoproterenol bitarate (Sigma Chemical Co., St. Louis, MO) was prepared immediately before use and dissolved and diluted in assay buffer. Control tubes were assayed in the presence of diluent alone.

[3] = biological target: T2, PTH receptors (bovine renal cortical plasma membranes) (Bos taurus, UniProt Q1LZF7); test: Bovine renal membrane binding assay; settings: radioligand [Nle^8, 8, (^125 I)-Tyr^34 ]bPTH (1-34)NH2, 30 min, 21° C
T2 construct: from tissue; host or cells: bovine renal cortex plasma membranes
T2 sequence (Q1LZF7 29-589): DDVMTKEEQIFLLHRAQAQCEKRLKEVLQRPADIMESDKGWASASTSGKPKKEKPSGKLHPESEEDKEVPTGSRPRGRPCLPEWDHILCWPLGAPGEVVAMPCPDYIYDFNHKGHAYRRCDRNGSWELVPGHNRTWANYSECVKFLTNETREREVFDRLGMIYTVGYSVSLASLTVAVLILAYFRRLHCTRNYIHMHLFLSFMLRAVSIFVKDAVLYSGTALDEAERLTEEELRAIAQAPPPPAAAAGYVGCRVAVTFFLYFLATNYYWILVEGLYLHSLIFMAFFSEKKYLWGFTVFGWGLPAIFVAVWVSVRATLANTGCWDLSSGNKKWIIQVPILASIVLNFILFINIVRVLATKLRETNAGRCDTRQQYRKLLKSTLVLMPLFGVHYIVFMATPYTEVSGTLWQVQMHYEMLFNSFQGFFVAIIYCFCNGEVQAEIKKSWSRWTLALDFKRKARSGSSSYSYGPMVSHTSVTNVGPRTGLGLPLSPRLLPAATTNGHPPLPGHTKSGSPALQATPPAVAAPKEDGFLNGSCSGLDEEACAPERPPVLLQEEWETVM
Description: HCF analogues were analysed in a new receptor assay reported in Goldman et al., Endocrin 123: 1468-1475 (1988). The binding assay used [Nle^8, 8, (^125 I)-Tyr^34 ]bPTH (1-34)NH2 which was purified by HPLC (Novapak C18, 32-35% CH3 CN in 0.1% TFA) and was stored as aliquots in 25 mM TrisHCl/1%BSA at -70° C. Bovine renal cortical plasma membranes were incubated with radioligand (25,000 cpm) in a Tris-containing buffer (250 μl) for 30 min at room temperature 21° C. Once equilibrium was reached, bound and free radioligand were separated by centrifugation. High specific binding (85%) to bovine renal cortical membranes was obtained consistently.

Q: CC[C@H](C)[C@H](NC(=O)[C@H](CC(C)C)NC(=O)[C@H](Cc1c[nH]cn1)NC(=O)[C@H](Cc1c[nH]cn1)NC(=O)[C@H](CC(C)C)NC(=O)[C@H](Cc1ccccc1)NC(=O)[C@H](Cc1ccccc1)NC(=O)[C@H](CCCNC(=N)N)NC(=O)[C@H](CCCNC(=N)N)NC(=O)[C@H](CCCNC(=N)N)NC(=O)[C@H](CC(C)C)NC(=O)[C@H](CC(=O)O)NC(=O)[C@H](CCC(N)=O)NC(=O)[C@@H](NC(=O)[C@H](CO)NC(=O)[C@H](CCCCNC(=O)CCNC(=O)CCCC[C@@H]1SC[C@@H]2NC(=O)N[C@@H]21)NC(=O)[C@@H](Cc1c[nH]c2ccccc12)NC(=O)[C@H](CC(C)C)NC(=O)[C@H](CC(=O)O)NC(=O)[C@H](Cc1c[nH]cn1)NC(=O)[C@H](CC(C)C)NC(=O)[C@@H](N)CC(C)C)[C@@H](C)CC)C(=O)N[C@@H](C)C(=O)N[C@@H](CCC(=O)O)C(=O)N[C@H](C(=O)N[C@@H](Cc1c[nH]cn1)C(=O)N[C@H](C(=O)N[C@@H](C)C(N)=O)[C@@H](C)O)[C@@H](C)CC [[Leu^11,D-Trp^12,Lys^13 (ε-(N-biotinyl β-Ala))]hHCF(7-34)NH2] was tested. Which pKi [1] did it give?
A: Its pKi is 7.43.

Q: What about the pKi [2] of the same compound?
A: The pKi was 8.12.

Q: And the Kb [3]?
A: The Kb was 22.6 nM.
